Holding throughout (type): cell-based
Assay [1] deals with BXF 5637. The assay can be described thus: 2D cell proliferation assay (CellTiter-Blue). The note with it: 72 h; cell line BXF 5637; three days of treatment; read-out: IC (abs. IC50). Here is the method: (§1) Viability of the cells was analyzed by using the CellTiter-Blue® Cell Viability Assay (Promega), and was performed according to manufacturer's instructions. Briefly, cells were harvested from exponential phase cultures (Chapter 6.6), counted and plated in 96-well flat-bottom microtiter plates at a cell density of 4,000-60,000 cells/well in a volume of 140 μl per well. After a 24 hours recovery period, 10 μL cell culture medium (six control wells/plate) or culture medium with test compound were added (Chapter 6.2). The compounds were applied at five concentrations in full-log increments up to 100 μM in duplicate. Cultures were incubated at 37° C. and 5% CO2 in a humidified atmosphere for another three days. After three days of treatment, 20 μl/well CellTiter-Blue® reagent was added. Following incubation with CellTiter-Blue® reagent for up to four hours, fluorescence (FU) was measured by using the Enspire Multimode Plate Reader (excitation λ=570 nm, emission λ=600 nm). For calculations, the mean values of duplicate/sextuplicate (untreated control) data were used.
(§2) Drug effects were expressed in terms of the percentage of the fluorescence signal, obtained by comparison of the mean signal in the treated wells with the mean signal of the untreated controls (expressed by the test-versus-control value, T/C-value [%]):
(§3) IC values are reported as relative IC50 values and absolute IC50 and IC70 values. […] The absolute IC70 value gives the concentration of the test compound that achieves T/C=30%. The relative IC50 value is the concentration of test compound that gives a response half way between the top and bottom plateau of the sigmoidal concentration-response curve (inflection point of the curve). Calculation was done by 4parameter non-linear curve fit (Oncotest Data Warehouse Software).
(§4) If an IC50 or IC70 value could not be determined within the examined dose range (because a compound was either too active or lacked activity), the lowest or highest concentration studied was used for calculation of the geometric mean value.
(§5) The overall potency of a compound was determined by the geometric mean IC50/IC70 values of all individual IC50/IC70 values. In the heatmap representation of IC50 and IC70 values, the distribution of the IC50 or IC70 values obtained for a test compound in the individual cell lines is given in relation to the geometric mean […] or IC70 value, obtained over all PDX models tested. The individual IC values range from 1/32-fold geometric mean IC (corresponding to very potent compound activity or high tumor sensitivity) to 32-fold geometric mean IC (corresponding to lack of compound activity or tumor resistance). The heatmap presentation, therefore, represents an antiproliferative “fingerprint” profile of a test compound.

The test system of assay [2] is CXF COLO 205. The assay can be described thus: 2D cell proliferation assay (CellTiter-Blue). Conditions: Homo sapiens, 72 h; cell line CXF COLO 205; three days of treatment; read-out: IC (abs. IC50). Here is the method:
as §1, §2, §3, §4, §5
For orientation: The colour change of resazurin is a common sign of viable cells or microbes.

For assay [3], the system named is CXF Caco-2. In words: 2D cell proliferation assay (CellTiter-Blue). Conditions: Homo sapiens, 72 h; cell line CXF Caco-2; three days of treatment; read-out: IC (abs. IC50). Here is the method: as §1, §2, §3, §4, §5
Assay [4] relates to LEXFAL MOLT-4. In words: 2D cell proliferation assay (CellTiter-Blue). Conditions: Homo sapiens, 72 h; cell line LEXFAL MOLT-4; three days of treatment; read-out: IC (abs. IC50). The protocol: as §1, §2, §3, §4, §5
The subject of assay [5] is LEXFCM K-562. In words: 2D cell proliferation assay (CellTiter-Blue). Conditions: Homo sapiens, K562, 72 h; cell line LEXFCM K-562; three days of treatment; read-out: IC (abs. IC50). Here is the method:
as §1, §2, §3, §4, §5

The test system of assay [6] is LIXFH HEP-3B. The assay can be described thus: 2D cell proliferation assay (CellTiter-Blue). The note with it: Homo sapiens, Hep3B, 72 h; cell line LIXFH HEP-3B; three days of treatment; read-out: IC (abs. IC50). Here is the method: as §1, §2, §3, §4, §5
Assay [7] relates to LIXFH Hep G2. In words: 2D cell proliferation assay (CellTiter-Blue). The note with it: Homo sapiens, HepG2, 72 h; cell line LIXFH Hep G2; three days of treatment; read-out: IC (abs. IC50). Here is the method:
as §1, §2, §3, §4, §5

Assay [8] relates to LXFA NCI-H1975. In words: 2D cell proliferation assay (CellTiter-Blue). Conditions: Homo sapiens, 72 h; cell line LXFA NCI-H1975; three days of treatment; read-out: IC (abs. IC50). Here is the method:
as §1, §2, §3, §4, §5

The subject of assay [9] is LXFL NCI-H1299. In words: 2D cell proliferation assay (CellTiter-Blue). Conditions: Homo sapiens, 72 h; cell line LXFL NCI-H1299; three days of treatment; read-out: IC (abs. IC50). The protocol: as §1, §2, §3, §4, §5
For assay [10], the system named is LYXFNH Daudi. The assay can be described thus: 2D cell proliferation assay (CellTiter-Blue). Conditions: Homo sapiens, 72 h; cell line LYXFNH Daudi; three days of treatment; read-out: IC (abs. IC50). Here is the method:
as §1, §2, §3, §4, §5

The test system of assay [11] is MAXFHER BT-474. In words: 2D cell proliferation assay (CellTiter-Blue). The note with it: Homo sapiens, 72 h; cell line MAXFHER BT-474; three days of treatment; read-out: IC (abs. IC50). The protocol:
as §1, §2, §3, §4, §5

The subject of assay [12] is MAXFHER SK-BR-3. The assay can be described thus: 2D cell proliferation assay (CellTiter-Blue). The note with it: Homo sapiens, 72 h; cell line MAXFHER SK-BR-3; three days of treatment; read-out: IC (abs. IC50). The protocol:
as §1, §2, §3, §4, §5

For assay [13], the system named is PRXF VCap. The assay can be described thus: 2D cell proliferation assay (CellTiter-Blue). Conditions: Homo sapiens, 72 h; cell line PRXF VCap; three days of treatment; read-out: IC (abs. IC50). The protocol: as §1, §2, §3, §4, §5
In assay [14] the test system is all cell lines tested. In words: 2D cell proliferation assay (CellTiter-Blue), geometric mean over the panel. Conditions: geometric mean of all individual IC50 values of Table 4; read-out: Geomean abs. IC50 value. Here is the method:
as §1, with “For calculations, the mean values of duplicate/sextuplicate (untreated control) data were used.” left out
as §4
The overall potency of a compound was determined by the geometric mean IC50/IC70 values of all individual IC50/IC70 values. […]

Structures are written as SMILES.

By IC50 is commonly meant the concentration needed to halve the response being measured. Consider `CN1CCN(c2ccc(Nc3ncc4cc(C(=O)N(C)C)n(C56CC(C5)C6)c4n3)cc2)CC1` [SPV113], for which the IC50 in [1] is 0.476 µM; in [2] it was 0.148 µM; in assay [3], no less than 100 µM; in assay [4], 0.567 µM; in assay [5] it was 1.15 µM; in assay [6] it was 0.367 µM. Besides, the IC50 in [7] is 0.124 µM; in assay [8], 0.122 µM; in assay [9], 1.63 µM; in assay [10] it was no more than 0.01 µM; in assay [11], 0.802 µM; in [12], 2.04 µM. The values for the IC50 in assay [13] and in [14] were 0.015 µM and 0.391 µM, respectively.

Source of the values: patent publication US20220056037A1 (SPV THERAPEUTICS INC., priority 2018, published 2022).
